Data set [1] is described as follows: In vitro transdermal flux of cannabinoids from monolithic patches, Franz Diffusion Cell method. The data set is classed as in vitro ADME, human. The note with it: for stimulation of cumulative CBD flux versus no dihydromyricetin: 15% CBD patch. The text has this:
Transdermal flux of cannabinoids can be measured In Vitro through human cadaver epidermis using Franz Diffusion Cell Method. Samples of 300 microliters can be taken of the receiving solution and analyzed by HPLC for amount ofcannabinoid substance that passed through the epidermis.
Flux is preferably measured using human cadaver skin with a Franz Diffusion Cell (see, Kristof (2017) Feasibility of transdermal delivery of Cyclosporine A using plasma discharges. Biointerphases. 12:02B402). Flux can be measured where the temperature of the Franz Diffusion Cell (and solutions inside the Franz Diffusion Cell) are held constant at about 17 degrees C., about 20 degrees C., about 23 degrees C. (“room temperature”), about 26 degrees C., about 30 degrees C., about 33 degrees C., about 37 degrees C. (mammalian body temperature), about 40 degrees C., and so on.
For each figure, the number of hours that flux was allowed to occur was twentyfour hours (24 hours). The data for each figure used a monolithic patch. Composition of the patch: PIB adhesive with 15% of CBD or 8% THC. Patch construction was adhesive layer attached to a backing polyethylene foam film. No additional overlays were used. Experiments were done using Franz Diffusion Cells using human cadaver skin.

The conditions of data set [2]: patch measuring 20 cm^2, PIB adhesive and 10% CBD; cited from earlier work.

Each structure is given as a SMILES string.

For the compound `C=C(C)[C@@H]1CCC(C)=C[C@H]1c1c(O)cc(CCCCC)cc1O` [CBD, cannabidiol], in data set [1] (control monolithic patch without any dihydromyricetin, 15% CBD, over a period of 24 hours), the “control net flux of CBD” value is “about 155 micrograms CBD per square centimeter of skin”. Besides, the “cumulative transdermal flux of CBD” value in data set [1] (monolithic PIB patch, 15% CBD, 0% dihydromyricetin, 24 hours, FIG. 2 first bar) is “about 155 micrograms/cm^2”; in data set [1] (monolithic PIB patch, 15% CBD, 3% dihydromyricetin, 24 hours, FIG. 2 second bar) it was “about 195 micrograms/cm^2”; in data set [1] (monolithic PIB patch, 15% CBD, 5% dihydromyricetin, 24 hours, FIG. 2 third bar) it was “about 230 micrograms/cm^2”. In addition, in data set [1] (monolithic PIB patch, 15% CBD, with dihydromyricetin, over a period of 24 hours), the “net flux of CBD” value is given as “at least 195 micrograms CBD per square centimeter of skin”. For the same compound, in data set [2], the “daily systemic dose of CBD deliverable” value is “about 5 mg”.

For the compound `CCCCCc1cc(O)c2c(c1)OC(C)(C)[C@@H]1CCC(C)=C[C@@H]21` [THC, tetrahydrocannabinol], the “control net flux of THC” value in data set [1] (control monolithic patch without any dihydromyricetin, 8% THC, over a period of 24 hours) is listed as “about 90 micrograms THC per square centimeter of skin”. For the same compound, the “cumulative transdermal flux of THC” value in data set [1] (monolithic PIB patch, 8% THC, 0.5% dihydromyricetin, 24 hours, FIG. 1 third bar) was “about 145 micrograms/cm^2”; in data set [1] (monolithic PIB patch, 8% THC, 3% oleic acid, 24 hours, FIG. 1 second bar), “about 110 micrograms/cm^2”; in data set [1] (monolithic PIB patch, 8% THC, no enhancer, 24 hours, FIG. 1 first bar) it was “about 90 micrograms/cm^2”. In addition, the “net flux of THC” value in data set [1] (monolithic PIB patch, 8% THC, with dihydromyricetin, over a period of 24 hours) is given as “at least 145 micrograms THC per square centimeter of skin”.

Turning to `O=C1c2c(O)cc(O)cc2O[C@H](c2cc(O)c(O)c(O)c2)[C@H]1O` [dihydromyricetin], the “stimulation of cumulative THC flux versus no dihydromyricetin” value in data set [1] (8% THC patch, 5% dihydromyricetin (third histogram bar), 24 hours) is “about 61%”. Also, the “stimulation of cumulative CBD flux versus no dihydromyricetin” value in data set [1] (3% dihydromyricetin, 24 hours) is given as “about 25%”; in data set [1] (5% dihydromyricetin, 24 hours), “about 48%”. Besides, in data set [1] (dermal patch formulation that includes CBD, human cadaver skin), the “increase of CBD flux through skin (factor)” value is recorded as “three-fold”.

These data come from patent US10821084B2, “Dihydromyricetin compositions” (REMY BIOSCIENCES, INC., priority 2018, dated 2020).
